# Measured values: PubChem BioAssay AID1963864 (Molecular Pharmacology Branch, DTP, NCI, 2024)
# Test system: KRAS PDC multicell spheroid viability
# Experiment: Anticancer human tumor 521955-158-R6-J3-PDC patient-derived pancreatic carcinoma cell line growth inhibition [KRAS2]
# Details: for viability, T/C: stronger effect = lower value
# Procedure, shortened: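 KRAS-mutant tumor cells were grown as spheroids with HUVEC endothelial cells and human MSCs as stroma. Targeted agents were tested alone and with KRAS pathway inhibitors. Doses started at or near clinical Cmax, or 10 microM, descending half-log.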
# [1] = curve of first compound, second compound 0.1 µM
# [2] = curve of first compound, second compound 0.316 µM
# [3] = curve of first compound, second compound 1 µM
# [4] = curve of first compound, second compound 3.16 µM
# [5] = curve of first compound, second compound 10 µM
# [6] = second compound 0.1 µM, first compound 0.0316 µM
# [7] = second compound 0.1 µM, first compound 0.1 µM
# [8] = second compound 0.1 µM, first compound 0.316 µM
# [9] = second compound 0.1 µM, first compound 1 µM
# [10] = second compound 0.1 µM, first compound 3.16 µM
# [11] = second compound 0.1 µM, first compound 10 µM
# [12] = second compound 0.316 µM, first compound 0.0316 µM
# [13] = second compound 0.316 µM, first compound 0.1 µM
# [14] = second compound 0.316 µM, first compound 0.316 µM
# [15] = second compound 0.316 µM, first compound 1 µM
# [16] = second compound 0.316 µM, first compound 3.16 µM
# [17] = second compound 0.316 µM, first compound 10 µM
# [18] = second compound 1 µM, first compound 0.0316 µM
# [19] = second compound 1 µM, first compound 0.1 µM
# [20] = second compound 1 µM, first compound 0.316 µM
# [21] = second compound 1 µM, first compound 1 µM
# [22] = second compound 1 µM, first compound 3.16 µM
# [23] = second compound 1 µM, first compound 10 µM
# [24] = second compound 3.16 µM, first compound 0.0316 µM
# [25] = second compound 3.16 µM, first compound 0.1 µM
# [26] = second compound 3.16 µM, first compound 0.316 µM
# [27] = second compound 3.16 µM, first compound 1 µM
# [28] = second compound 3.16 µM, first compound 3.16 µM
# [29] = second compound 3.16 µM, first compound 10 µM
# [30] = second compound 10 µM, first compound 0.0316 µM
# [31] = second compound 10 µM, first compound 0.1 µM
# [32] = second compound 10 µM, first compound 0.316 µM
# [33] = second compound 10 µM, first compound 1 µM
# [34] = second compound 10 µM, first compound 3.16 µM
# [35] = second compound 0.1 µM, first compound 0.01 µM
# [36] = second compound 0.316 µM, first compound 0.01 µM
# [37] = second compound 1 µM, first compound 0.01 µM
# [38] = second compound 3.16 µM, first compound 0.01 µM
# [39] = second compound 10 µM, first compound 0.01 µM
# 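Also: drug exposure lasted seven days.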
# 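For viability, T/C in this document: 100% = DMSO vehicle wells and lower means fewer viable cells.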
SMILES,IC50 [1] [nM],IC50 [2] [nM],IC50 [3] [nM],IC50 [4] [nM],"viability, T/C [6] [%]","viability, T/C [7] [%]","viability, T/C [8] [%]","viability, T/C [9] [%]","viability, T/C [12] [%]","viability, T/C [13] [%]","viability, T/C [14] [%]","viability, T/C [15] [%]","viability, T/C [18] [%]","viability, T/C [19] [%]","viability, T/C [20] [%]","viability, T/C [21] [%]","viability, T/C [24] [%]","viability, T/C [25] [%]","viability, T/C [26] [%]","viability, T/C [27] [%]",also measured
COc1cc2nccc(Oc3ccc(NC(=O)C4(C(=O)Nc5ccc(F)cc5)CC4)cc3)c2cc1OC + CNCc1ccccc1-c1csc(C(C)Nc2nc(C)nc3cc(OC)c(OC)cc23)c1,> 10000,> 10000,2160,< 31.6,91.1,102,101,108,94.3,92.9,90.2,87.7,80.1,75.1,79.3,83.9,0.94,0.35,0.42,0.24,"IC50 [5]: < 31.6 nM; viability, T/C [10]: 125%; viability, T/C [11]: 133%; viability, T/C [16]: 119%; viability, T/C [17]: 109%; viability, T/C [22]: 32.2%; viability, T/C [23]: 38.4%; viability, T/C [28]: 0.24%; viability, T/C [29]: 0.24%; viability, T/C [30]: 13.4%; viability, T/C [31]: 0.23%; viability, T/C [32]: 0.2%; viability, T/C [33]: 0.21%; viability, T/C [34]: 0.2%; viability, T/C (second compound 10 µM, first compound 10 µM): 0.28%"
CCN1CCN(Cc2ccc(Nc3ncc(F)c(-c4cc(F)c5nc(C)n(C(C)C)c5c4)n3)nc2)CC1 + COc1cc2nc(C)nc(NC(C)c3cc(N)cc(C(F)(F)F)c3)c2cc1OC1CCOC1,> 1000,> 1000,> 1000,> 1000,69.7,83.9,73.7,101,88.3,69.8,71.8,88.8,86.1,75.6,71.5,86.8,79.1,66.8,69.8,77.4,"IC50 [5]: < 3.16 nM; viability, T/C (second compound 0.1 µM, first compound 0.00316 µM): 105%; viability, T/C [35]: 88%; viability, T/C (second compound 0.316 µM, first compound 0.00316 µM): 93.8%; viability, T/C [36]: 84.5%; viability, T/C (second compound 1 µM, first compound 0.00316 µM): 90.7%; viability, T/C [37]: 84.1%; viability, T/C (second compound 3.16 µM, first compound 0.00316 µM): 87.1%; viability, T/C [38]: 82.1%; viability, T/C (second compound 10 µM, first compound 0.00316 µM): 33.4%; viability, T/C [39]: 33.6%; viability, T/C [30]: 40.5%; viability, T/C [31]: 55.1%; viability, T/C [32]: 17.6%; viability, T/C [33]: 10%"
CC1(C)CCC(CN2CCN(c3ccc(C(=O)NS(=O)(=O)c4ccc(NCC5CCOCC5)c([N+](=O)[O-])c4)c(Oc4cnc5[nH]ccc5c4)c3)CC2)=C(c2ccc(Cl)cc2)C1 + C=CC(=O)N1CCN(c2nc(OCC3CCCN3C)nc3c2CCN(c2cccc4cccc(C)c24)C3)CC1CC#N,4480,2680,1920,< 31.6,93.5,97.3,90.6,91.9,92,95.8,101,97.2,82.4,78.2,80.1,76.9,45.2,48.4,24.2,8.37,"IC50 (curve of first compound, second compound 0.0316 µM): 3860 nM; viability, T/C (second compound 0.0316 µM, first compound 0.0316 µM): 104%; viability, T/C (second compound 0.0316 µM, first compound 0.1 µM): 97.5%; viability, T/C (second compound 0.0316 µM, first compound 0.316 µM): 95.6%; viability, T/C (second compound 0.0316 µM, first compound 1 µM): 92.7%; viability, T/C (second compound 0.0316 µM, first compound 3.16 µM): 57.3%; viability, T/C (second compound 0.0316 µM, first compound 10 µM): 14.4%; viability, T/C [10]: 64.2%; viability, T/C [11]: 17%; viability, T/C [16]: 42.1%; viability, T/C [17]: 15.4%; viability, T/C [22]: 29.4%; viability, T/C [23]: 6.62%; viability, T/C [28]: 0.18%; viability, T/C [29]: 0.23%"
CC1COCCN1c1cc(-c2ccnn2C)c2ccnc(-c3ccn[nH]3)c2n1 (stereo not given) + CC1OCC2(CCN(c3cnc(Sc4ccnc(N)c4Cl)c(N)n3)CC2)C1N,> 3160,> 3160,> 3160,> 3160,81.1,73.9,67.6,67.3,84.5,74.6,64.3,71.2,84.8,81.4,76.7,68.3,109,99.9,75.8,67.8,"IC50 [5]: > 3160 nM; viability, T/C [35]: 87.9%; viability, T/C [10]: 75.2%; viability, T/C [36]: 89.9%; viability, T/C [16]: 64.4%; viability, T/C [37]: 91.9%; viability, T/C [22]: 61%; viability, T/C [38]: 102%; viability, T/C [28]: 66.6%; viability, T/C [39]: 108%; viability, T/C [30]: 115%; viability, T/C [31]: 90.7%; viability, T/C [32]: 87.6%; viability, T/C [33]: 79.3%; viability, T/C [34]: 64.9%"
COc1cc(Nc2ncc3c(n2)-c2ccc(Cl)cc2C(c2c(F)cccc2OC)=NC3)ccc1C(=O)O,–,–,–,–,–,–,–,–,–,–,–,–,–,–,–,–,–,–,–,–,"viability, T/C (compound 0.0316 µM): 93.8% [middle of 5 runs]; viability, T/C (compound 0.1 µM): 90.8% [middle of 5 runs]; viability, T/C (compound 0.316 µM): 96.9% [middle of 5 runs]; viability, T/C (compound 1 µM): 90.7% [middle of 5 runs]; IC50 (curve of compound): > 10000 nM"
